Experiment [1] relates to Escherichia coli. Description: Antibacterial activity against Escherichia coli ATCC 25922 assessed as inhibition of bacterial growth at 100 ug/mL incubated at 37 degC for 24 hrs by broth microdilution assay. The experiment is classed as functional. The following applies: ATCC 25922, 24 h. Background: Broth dilution looks for growth in wells or tubes with falling amounts of substance.

Experiment [2] has as its system Staphylococcus aureus. Description: Antibacterial activity against Staphylococcus aureus ATCC 25923 assessed as inhibition of bacterial growth at 100 ug/mL incubated at 37 degC for 24 hrs by broth microdilution assay. Format: functional. The following applies: ATCC 25923, 24 h.
For experiment [3], the system named is Enterococcus faecalis. Description: Antibacterial activity against Enterococcus faecalis ATCC 29212 assessed as inhibition of bacterial growth at 100 ug/mL incubated at 37 degC for 24 hrs by broth microdilution assay. Format: functional. Particulars: ATCC 29212, 24 h.
The test system of experiment [4] is Staphylococcus aureus. As to the kind of experiment: Antibacterial activity against Staphylococcus aureus ATCC 25923 assessed as inhibition of bacterial growth incubated at 37 degC for 24 hrs by broth microdilution assay. Format: functional. The following applies: ATCC 25923, 24 h.
Experiment [5] concerns Escherichia coli. Description: microbe, parasite or virus in culture. Particulars: ATCC 25922, 24 h.
Description: Antibacterial activity against Escherichia coli ATCC 25922 assessed as inhibition of bacterial growth incubated at 37 degC for 24 hrs by broth microdilution assay
Experiment [6] has as its system Enterococcus faecalis. As to the kind of experiment: microbe, parasite or virus in culture. Particulars: ATCC 29212, 24 h.
Description: Antibacterial activity against Enterococcus faecalis ATCC 29212 assessed as inhibition of bacterial growth incubated at 37 degC for 24 hrs by broth microdilution assay

Converted amounts (≈) assume the structure as drawn.

Take `CCCCCCCCCCCC1CC=C/C(=C\C(C)=O)O1` (stereo not given): the results for the inhibition at 100 µg/mL with Escherichia coli [1], in the experiment on Staphylococcus aureus [2] and with Enterococcus faecalis [3] were 15%, -95% and 21%, respectively.
Turning to `CCCCCCCCCCCC1=C(C(C)=O)C(=O)C[C@@H](O)C1`, the results for the inhibition at 100 µg/mL with Escherichia coli [1], in the experiment with Staphylococcus aureus [2] and in the experiment with Enterococcus faecalis [3] were 29%, 100% and 23%, respectively. Also, in the experiment on Staphylococcus aureus [4], the MIC90 is 25 µg/mL (≈ 81 µM).
Consider `CCCCCCCCCCCc1cc(O)cc(O)c1C(C)=O`, for which the figures for the inhibition at 100 µg/mL in the experiment on Escherichia coli [1], in the experiment with Staphylococcus aureus [2] and in the experiment with Enterococcus faecalis [3] were -1%, 17% and -9.8%, respectively.
For `CCCCCCCCCCCC1CC=C/C(=C/C(C)=O)O1` (stereo not given), in that order: 25%, -57% and 19%.
`CCCCCCCCCCCc1cccc(O)c1C(C)=O`: the inhibition at 100 µg/mL in the experiment with Escherichia coli [1] is -3.3%; in the experiment on Staphylococcus aureus [2] it was 65%; with Enterococcus faecalis [3], -1%.
Turning to `CCCCCCCCCCC[C@H](O)C[C@H]1CC(=O)C=C(C)O1`, the values for the inhibition at 100 µg/mL in the experiment on Escherichia coli [1], with Staphylococcus aureus [2] and in the experiment with Enterococcus faecalis [3] were 27%, -8.5% and 23%, respectively.
For the molecule `O=C(O)c1cn(C2CC2)c2cc(N3CCNCC3)c(F)cc2c1=O` [CIPROFLOXACIN], the MIC90 was determined as 0.016 µg/mL (≈ 0.0483 µM) in the experiment with Escherichia coli [5], 1 µg/mL (≈ 3.02 µM) against Enterococcus faecalis [6] and 0.5 µg/mL (≈ 1.51 µM) in the experiment on Staphylococcus aureus [4].
For `CCCCC/C=C\C/C=C\CCCCCCCC(=O)/C=C(/C)O`, the inhibition at 100 µg/mL is -2.4% in the experiment with Escherichia coli [1], -17% in the experiment with Staphylococcus aureus [2] and -10% in the experiment on Enterococcus faecalis [3].

By inhibition is commonly meant the change of the read-out against control, counted positive when it falls.

Values taken from ChEMBL document CHEMBL3588777, “Acetate-Derived Metabolites from the Brown Alga Lobophora variegata” (2015).
